Laboratory results as given in patent publication US20230293469A1, “NOVEL PHARMACEUTICAL COMPOSITIONS” (NEUROPRO THERAPEUTICS, INC., priority 2020, published 2023).
Read-outs that look alike come from different tables or passages of the source.

Test: Oral dose PK of NPT2042 in dog (AUC for absolute bioavailability)
Assay type: in vivo
Protocol: Assays were performed to determine absolute bioavailability of NPT2042 in two species: dog and rat. The calculation of absolute bioavailability depends on four inputs: the areas under the curves (AUC) for oral and IV, and the oral and IV doses.
Testing was conducted to determine AUCs for an oral dose in dog.
Two dogs were each dosed 30 mg/kg NPT2042 orally, on two different days.

[1] = NPT2042, dog, oral 30 mg/kg, animals D0001, D0601, Mean, 30 mg/kg
[2] = NPT2042, dog, oral 30 mg/kg, animals D0001, D0601, Mean, 30 mg/kg, mean
[3] = dog, in vivo, po, 30 mg/kg, NPT2042, dog, oral 30 mg/kg, animals D0001, D0601, Mean

`CCCCNc1cc(C(=O)N(Cc2ccccc2)Cc2ccccc2)cc(S(N)(=O)=O)c1Oc1ccccc1` [NPT-2042, N,N-Dibenzyl 3-Aminosulfonyl-5-butylamino-4-phenoxybenzamide] gave an AUCinf [1] of 1520 ng·h/mL, an AUClast [1] of 1450 ng·h/mL and a CL/F [1] of 328 mL/min/kg. It also gave a Cmax [1] of 153 ng/mL, a t½ [1] of 4.72 h and an AUCinf [2] of 1440 ng·h/mL. The AUClast [2] was 1390 ng·h/mL, the CL/F [2] was 347 mL/min/kg and the Cmax [2] was 152 ng/mL. The t½ [2] was 4.16 h, the AUC(0-inf) [3] was 1360 ng·h/mL and the AUC(0-t) [3] was 1340 ng·h/mL. It also gave a CL/F (dog, in vivo, po, 30 mg/kg, NPT2042, dog, oral 30 mg/kg, animals D0001, D0601, Mean, read-out: CL/F (converted)) of 367 mL/min/kg, a Cmax (dog, in vivo, po, 30 mg/kg, NPT2042, dog, oral 30 mg/kg, animals D0001, D0601, Mean, read-out: Cmax) of 151 ng/mL and a Vd/F (dog, in vivo, po, 30 mg/kg, NPT2042, dog, oral 30 mg/kg, animals D0001, D0601, Mean, read-out: Vz/F) of 115 L/kg. The half-life (dog, in vivo, po, 30 mg/kg, NPT2042, dog, oral 30 mg/kg, animals D0001, D0601, Mean, read-out: t½ (converted)) was 3.61 h, the “Absolute bioavailability (AUCpo/AUCiv)*(Doseiv/Dosepo)” value (dog, oral 30 mg/kg vs IV 10 mg/kg, as fraction) was 0.0509 and the Tmax (in vivo, NPT2042, dog, oral 30 mg/kg, animals D0001, D0601, Mean) was 6 h. The bioavailability (in vivo, dog, oral 30 mg/kg vs IV 10 mg/kg) was 5.1%.
